This note sets out measurements from patent EP1046401A2, “Fatty acid derivative labelled with a radioactive transition metal” (NIHON MEDI-PHYSICS Co., Ltd., priority 1999, dated 2000).

Each structure is given as a SMILES string.

The subject of data set [1] is liver slice. Briefly: Survival of cells in the liver slice by lactic acid dehydrogenase (LDH) leaked into the medium. Conditions: inhibition group (2-bromooctanoic acid 100 µM), at the termination point of experiments; no significant difference from control group. Type of data set: cell-based, rat. The protocol: Under anesthetized, a rat was subjected to celiotomy and bleeded by perfusion via the portal vein with 20 mM of tris-HCl buffer solution (containing 100 mM of potassium chloride, 5 mM of magnesium chloride, 5 mM of potassium dihydrogen phosphate, pH 7.4) which is saturated with O2/CO2 (95/5) gas. Then, the liver was excised and pieces of liver slice having the thickness of 300 µm were prepared by using Stadie, Riggs type of slicer (manufactures by NATSUME SEISAKUSHO). After weighing, each pieces of liver slices were divided into two groups. One is inhibiting group which was preincubated in 20mM tris-HCl buffer solution at 37°C for 5 minutes, in the presence of 2-bromooctanoic acid (the final concentration: 100 µM) as β-oxidation inhibitor, and another one is control group which was preincubated in 20 mM tris-HCl buffer solution at 37°C for 5 minutes, without the inhibitor. Next, [^99mTc]MAMA-HA (3.7 MBq) was added, and incubation was carried out under bubbling O2/CO2 (95/5) gas at 37°C for 60 minutes with shaking 60 times per minute. […] The samples were analyzed by reversed phase HPLC under the same conditions employed in Determination of metabolites by in vivo test. Survival rate of the cells in the liver slice sample used in the test was determined by measuring the activity of lactic acid dehydrogenase (LDH) leaked into the culture medium. […]

For data set [2], the system named is liver slice. Briefly: Determination of the metabolites by in vitro test (liver slice, reversed phase HPLC). Type of data set: in vitro ADME, rat. Conditions: 2-bromooctanoic acid added as inhibitor for the β-oxidation, liver slice incubation. The method, then:
Under anesthetized, a rat was subjected to celiotomy and bleeded by perfusion via the portal vein with 20 mM of tris-HCl buffer solution (containing 100 mM of potassium chloride, 5 mM of magnesium chloride, 5 mM of potassium dihydrogen phosphate, pH 7.4) which is saturated with O2/CO2 (95/5) gas. Then, the liver was excised and pieces of liver slice having the thickness of 300 µm were prepared by using Stadie, Riggs type of slicer (manufactures by NATSUME SEISAKUSHO). After weighing, each pieces of liver slices were divided into two groups. […] The samples were analyzed by reversed phase HPLC under the same conditions employed in Determination of metabolites by in vivo test. Survival rate of the cells in the liver slice sample used in the test was determined by measuring the activity of lactic acid dehydrogenase (LDH) leaked into the culture medium. […]
In conducting the in vitro experiment for determining the metabolite more than 90% of the radioactivity in liver homogenate was extracted.
21.2 ± 3.0% of the whole radioactivity was eluted at the fraction retained at 17 minutes. […]

For the compound `CCCCCCC(Br)C(=O)O` (centres unmarked) [2-bromooctanoic acid], in the data set on liver slice [1], the LDH activities was 3,285 ± 367 IU/L. Besides, the “formation of [^99mTc]MAMA-BA from [^99mTc]MAMA-HA” value in the data set on liver slice [2] was “inhibited completely”.
